Legend:
Type in all cases: in vivo, Balb/c mice
[1] = tested on: AOM/DSS colon cancer model; assay: AOM/DSS colon cancer model, Experiment 1 (body weight, anal prolapse, organ coefficient, colon and tumor indexes)
Protocol: (§1) Experimental method: 90 Balb/c mice of 6-8 weeks were purchased from the Experimental Animal Center in Guangzhou University of Chinese Medicine, weighed about 18-22 g, and subjected to adaptive feeding for 10 days. Modeling was divided into three stages. In the first stage, except for the normal group of animals being given saline injection, each of the other animals were intraperitoneally injected with a carcinogen AOM (10 mg/kg), and given free access to 2% DSS water from the next day for 7 days, and then given access to replaced regular drinking water for 14 days. In the second stage, the animals were given free access to 2% DSS water for 10 days, and then given access to replaced regular drinking water for 14 days. In the third stage, the animals were given free access to 2% DSS water for 10 days, and then given access to replaced regular drinking water for 11 days. The normal group was given access to regular drinking water throughout the experiment. The diet, water drinking and body weights of the animals were recorded daily and DAI scores were made, and the animals were killed and harvested at the 10th week. In this experiment, the animals were divided into groups and administrated on the first day of a modeling period of the second stage, and the total number of groups was set to 5 groups. The first group was a blank control group (Normal), in which a total of 12 animals were given access to drinking water by gavage; the second group was a model group (AOM/DSS), in which a total of 22 animals were given access to drinking water by gavage; the third group was a positive drug control group (5-ASA+AOM/DSS), in which a total of 22 animals were given access to 100 mg/kg of mesalazine (5-ASA) by gavage; and the fourth and fifth groups were monotropein-intervening groups (Mo+AOM/DSS), which were a high dose of 8 mg/kg and a low dose of 2 mg/kg, respectively, with 17 animals in each group. Dosing was conducted daily until dissection.
(1) The calculation formula of a DAI score: DAI value=(score of weight loss+score of stool trait+score of blood in stool)/3.
The animals were anesthetized and harvested, and the liver, spleen, thymus and testis were weighed to calculate the organ coefficient; the colon tissue was taken, measured with a ruler for the length, and measured with a vernier caliper for the thickness, and the number and size of tumors and degree of colonic ulceration and adhesion were recorded; respective tissues were cut into small pieces and fixed, and the remaining tissues were frozen and stored; and the fixed tissues were used for HE staining and immunohistochemistry.

[2] = tested on: peripheral blood macrophages; assay: Typing of peripheral blood macrophages by flow cytometry; details: compared with normal group
Protocol: as §1, with “The first group was a blank control group (Normal), in which a total of 12 animals were given access to drinking water by gavage; the second group was a model group (AOM/DSS), in which a total of 22 animals were given access to drinking water by gavage; the third group was a positive drug control group (5-ASA+AOM/DSS), in which a total of 22 animals were given access to 100 mg/kg of mesalazine (5-ASA) by gavage; and the fourth and fifth groups were monotropein-intervening groups (Mo+AOM/DSS), which were a high dose of 8 mg/kg and a low dose of 2 mg/kg, respectively, with 17 animals in each group.” left out, “dissection. […]” for “dissection.”

intestinal permeability = assay: Determination of intestinal permeability in serum with FITC-dextran; details: after third stage of modeling; monotropein high and low doses, 5-ASA 100 mg/kg
Protocol: Experimental method: 90 Balb/c mice of 6-8 weeks were purchased from the Experimental Animal Center in Guangzhou University of Chinese Medicine, weighed about 18-22 g, and subjected to adaptive feeding for 10 days. Modeling was divided into three stages. In the first stage, except for the normal group of animals being given saline injection, each of the other animals were intraperitoneally injected with a carcinogen AOM (10 mg/kg), and given free access to 2% DSS water from the next day for 7 days, and then given access to replaced regular drinking water for 14 days. In the second stage, the animals were given free access to 2% DSS water for 10 days, and then given access to replaced regular drinking water for 14 days. In the third stage, the animals were given free access to 2% DSS water for 10 days, and then given access to replaced regular drinking water for 11 days. […] The diet, water drinking and body weights of the animals were recorded daily and DAI scores were made, and the animals were killed and harvested at the 10th week. […] 25 μl of serum was taken and added with 100 μl PBS, and determined on a microplate reader for its fluorescence intensity, where the wavelength of the exciting light was 480 nm, and the wavelength of the emitting light was 520 nm. A standard curve was made and the sample concentration was calculated.

IL-6, IL-10, IL-1β = assay: Determination of cytokines in intestinal tumor tissues by Elisa; details: vs model group; high-dose monotropein (8 mg/kg) and positive drug 5-ASA (100 mg/kg)
Protocol: as §1, with “The first group was a blank control group (Normal), in which a total of 12 animals were given access to drinking water by gavage; the second group was a model group (AOM/DSS), in which a total of 22 animals were given access to drinking water by gavage; the third group was a positive drug control group (5-ASA+AOM/DSS), in which a total of 22 animals were given access to 100 mg/kg of mesalazine (5-ASA) by gavage; and the fourth and fifth groups were monotropein-intervening groups (Mo+AOM/DSS), which were a high dose of 8 mg/kg and a low dose of 2 mg/kg, respectively, with 17 animals in each group. Dosing was conducted daily until dissection.” left out
The intestinal tumor tissues frozen and stored at −80° C. were taken and homogenized, and the homogenate was determined with a BCA kit for the total protein concentration thereof. The homogenate was diluted by 20 times and then determined by Elisa method for cytokines: IL-6, IL-10, and IL-1β. […]

Nc1ccc(O)c(C(=O)O)c1 [5-ASA, mesalazine, reference compound]
spleen enlargement caused by AOM/DSS modeling (organ coefficient) ([1]; monotropein high (8 mg/kg) and low (2 mg/kg) doses, 5-ASA 100 mg/kg): has no such effect | anal prolapse occurrence at the third stage of modeling ([1]; per group, monotropein 8 mg/kg and 2 mg/kg groups (17 animals each), 5-ASA 100 mg/kg (22 animals), gavage daily, model group 8-12): 8-12 animals | M1/M2 ratio of peripheral blood macrophages [2]: significantly reduced | intestinal permeability (FITC-dextran in serum) vs model group (intestinal permeability): not statistically significant | level of IL-10 in tumor tissues (IL-6, IL-10, IL-1β): no significant differences

Source: US20210177879A1, “VITAMIN D RECEPTOR AGONIST” (Guanghzou University of Chinese Medicine, priority 2018, published 2021)
